Data from US10370412B2, “Beta-hairpin peptidomimetics” (Polyphor AG, priority 2013, dated 2019).
Where a SMILES comes first, the peptide text is derived from it. [ ]: non-standard residue; d: D form. Cha = N[C@@H](CC1CCCCC1)C(=O)O; Chg = N[C@H](C(=O)O)C1CCCCC1; Tle = CC(C)(C)[C@H](N)C(=O)O; dDab = NCC[C@@H](N)C(=O)O; Orn = NCCC[C@H](N)C(=O)O; Dab = NCC[C@H](N)C(=O)O

The compounds below were run on human red blood cells (hRBC). Settings: red cells of human, 1 h.
Assay type: cell-based
Experimental: The peptides were tested for their hemolytic activity against human red blood cells (hRBC). Fresh hRBC were washed three times with phosphate buffered saline (PBS) and centrifuged for 10 min at 2000×g. Compounds (100 μg/ml) were incubated with 20% hRBC (v/v) for 1 h at 37° C. and shaking at 300 rpm. The final erythrocyte concentration was approximately 0.9×10^9 cells/ml. A value of 0% and 100% cell lyses, respectively, was determined by incubation of hRBC in the presence of PBS containing 0.001% acetic acid and 2.5% Triton X-100 in H2O, respectively. The samples were centrifuged, the supernatants were 8-fold diluted in PBS buffer and the optical densities (OD) were measured at 540 nm. The 100% lyses value (OD540H2O) gave an OD540 of approximately 0.5-1.0. Percent hemolysis was calculated as follows: (OD540peptide/OD540H2O)×100%.
For CC(C)C[C@@H]1NC(=O)[C@@H]2CCCN2C(=O)[C@H]2CCCN2C(=O)[C@H](CO)NC(=O)[C@H](CO)NC(=O)[C@H](C(C)(C)C)NC(=O)[C@H](CCN)NC(=O)[C@H](Cc2c[nH]c3ccccc23)NC(=O)[C@H](CCN)NC(=O)[C@@H](CCN)NC(=O)[C@H](CCCN)NC(=O)[C@H](CCN)NC(=O)[C@H](CC2CCCCC2)NC(=O)[C@H](Cc2c[nH]c3ccccc23)NC1=O [compound 37, cyclo(-Leu-Trp-Cha-Dab-Orn-^DDab-Dab-Trp-Dab-tBuGly-Ser-Ser-^DPro-Pro-)] (cyclo(LW[Cha][Dab][Orn][dDab][Dab]W[Dab][Tle]SS[dP]P)), the “Hemolysis at 100 μg/ml” value was 1%. C[C@@H]1NC(=O)[C@H](CC2CCCCC2)NC(=O)[C@H](CCN)NC(=O)[C@H](Cc2c[nH]c3ccccc23)NC(=O)[C@H](CCN)NC(=O)[C@@H](CCN)NC(=O)[C@H](CCCN)NC(=O)[C@H](CCN)NC(=O)[C@H](C(C)(C)C)NC(=O)[C@H](Cc2c[nH]c3ccccc23)NC(=O)[C@H](Cc2c[nH]c3ccccc23)NC(=O)[C@@H]2CCCN2C(=O)[C@H]2CCCN2C(=O)[C@H](CO)NC1=O [compound 12, cyclo(-Trp-Trp-tBuGly-Dab-Orn-^DDab-Dab-Trp-Dab-Cha-Ala-Ser-^DPro-Pro-)] (cyclo(WW[Tle][Dab][Orn][dDab][Dab]W[Dab][Cha]AS[dP]P)) was tested, and the “Hemolysis at 100 μg/ml” value was 3%. CC(C)C[C@@H]1NC(=O)[C@H](Cc2c[nH]c3ccccc23)NC(=O)[C@H](Cc2c[nH]c3ccccc23)NC(=O)[C@@H]2CCCN2C(=O)[C@H]2CCCN2C(=O)[C@H](C(C)C)NC(=O)[C@H](C)NC(=O)[C@H](C(C)C)NC(=O)[C@H](CCN)NC(=O)[C@H](Cc2c[nH]c3ccccc23)NC(=O)[C@H](CCN)NC(=O)[C@@H](CCN)NC(=O)[C@H](CCCN)NC(=O)[C@H](CCN)NC1=O [compound 13, cyclo(-Trp-Trp-Leu-Dab-Orn-^DDab-Dab-Trp-Dab-Val-Ala-Val-^DPro-Pro-)] (cyclo(WWL[Dab][Orn][dDab][Dab]W[Dab]VAV[dP]P)) was tested, and the “Hemolysis at 100 μg/ml” value was 2%. CC(C)C[C@@H]1NC(=O)[C@@H]2CCCN2C(=O)[C@H]2CCCN2C(=O)[C@H](CO)NC(=O)[C@H](C)NC(=O)[C@H](Cc2c[nH]c3ccccc23)NC(=O)[C@H](CCN)NC(=O)[C@H](Cc2c[nH]c3ccccc23)NC(=O)[C@H](CCN)NC(=O)[C@@H](CCN)NC(=O)[C@H](CCCN)NC(=O)[C@H](CCN)NC(=O)[C@H](Cc2ccc(O)cc2)NC(=O)[C@H](Cc2c[nH]cn2)NC1=O [compound 29, cyclo(-Leu-His-Tyr-Dab-Orn-^DDab-Dab-Trp-Dab-Trp-Ala-Ser-^DPro-Pro-)] (cyclo(LHY[Dab][Orn][dDab][Dab]W[Dab]WAS[dP]P)) was tested, and the “Hemolysis at 100 μg/ml” value was 0%. With CC(C)C[C@@H]1NC(=O)[C@@H]2CCCN2C(=O)[C@H]2CCCN2C(=O)[C@H](CO)NC(=O)[C@H](CO)NC(=O)[C@H](CC2CCCCC2)NC(=O)[C@H](CCN)NC(=O)[C@H](Cc2c[nH]c3ccccc23)NC(=O)[C@H](CCN)NC(=O)[C@@H](CCN)NC(=O)[C@H](CCCN)NC(=O)[C@H](CCN)NC(=O)[C@H](Cc2ccc(O)cc2)NC(=O)[C@H](Cc2c[nH]c3ccccc23)NC1=O [compound 32, cyclo(-Leu-Trp-Tyr-Dab-Orn-^DDab-Dab-Trp-Dab-Cha-Ser-Ser-^DPro-Pro-)] (cyclo(LWY[Dab][Orn][dDab][Dab]W[Dab][Cha]SS[dP]P)) the “Hemolysis at 100 μg/ml” value was 3%. In the case of C[C@@H]1NC(=O)[C@H](C2CCCCC2)NC(=O)[C@H](CCN)NC(=O)[C@H](Cc2c[nH]c3ccccc23)NC(=O)[C@H](CCN)NC(=O)[C@@H](CCN)NC(=O)[C@H](CCCCN)NC(=O)[C@H](CCN)NC(=O)[C@H](CC2CCCCC2)NC(=O)[C@H](Cc2c[nH]c3ccccc23)NC(=O)[C@H](Cc2c[nH]c3ccccc23)NC(=O)[C@@H]2CCCN2C(=O)[C@H]2CCCN2C(=O)[C@H](CO)NC1=O [compound 10, cyclo(-Trp-Trp-Cha-Dab-Lys-^DDab-Dab-Trp-Dab-Chg-Ala-Ser-^DPro-Pro-)] (cyclo(WW[Cha][Dab]K[dDab][Dab]W[Dab][Chg]AS[dP]P)), the “Hemolysis at 100 μg/ml” value is reported as 1%. CC(C)C[C@@H]1NC(=O)[C@@H]2CCCN2C(=O)[C@H]2CCCN2C(=O)[C@H](CO)NC(=O)[C@H](C)NC(=O)[C@H](C(C)(C)C)NC(=O)[C@H](CCN)NC(=O)[C@H](Cc2c[nH]c3ccccc23)NC(=O)[C@H](CCN)NC(=O)[C@@H](CCN)NC(=O)[C@H](CCCN)NC(=O)[C@H](CCN)NC(=O)[C@H](Cc2c[nH]c3ccccc23)NC(=O)[C@H](Cc2c[nH]c3ccccc23)NC1=O [compound 27, cyclo(-Leu-Trp-Trp-Dab-Orn-^DDab-Dab-Trp-Dab-tBuGly-Ala-Ser-^DPro-Pro-)] (cyclo(LWW[Dab][Orn][dDab][Dab]W[Dab][Tle]AS[dP]P)) was tested, and the “Hemolysis at 100 μg/ml” value was 0%. In the case of CC(C)C[C@@H]1NC(=O)[C@@H]2CCCN2C(=O)[C@H]2CCCN2C(=O)[C@H](CO)NC(=O)[C@H](C)NC(=O)[C@H](C2CCCCC2)NC(=O)[C@H](CCN)NC(=O)[C@H](Cc2c[nH]c3ccccc23)NC(=O)[C@H](CCN)NC(=O)[C@H](CCN)NC(=O)[C@H](CCCN)NC(=O)[C@H](CCN)NC(=O)[C@H](Cc2ccc(O)cc2)NC(=O)[C@H](Cc2c[nH]cn2)NC1=O [compound 22, cyclo(-Leu-His-Tyr-Dab-Orn-Dab-Dab-Trp-Dab-Chg-Ala-Ser-^DPro-Pro-)] (cyclo(LHY[Dab][Orn][Dab][Dab]W[Dab][Chg]AS[dP]P)), the “Hemolysis at 100 μg/ml” value is reported as 0%.
